Values joined by “and” are separate entries in the source; they are usually repeats but may differ in a detail not shown here. Equal values may be shown once. Read-outs that look alike come from different tables or passages of the source.
How the values were obtained:
PC3 = experiment: MTT overall cell growth, PC3 cells; format: cell-based; settings: Homo sapiens, 72 h; PC-3; 3 days of culturing; mean of six determinations; read-out: IC50 (μM) In Vitro Growth Inhibition
Protocol: Tests were performed in order to rapidly, i.e. within 5 days, measure the effect of the compound of example 2 on the overall cell growth. The test measures the number of metabolically active living cells that are able to transform the yellow product 3-(4,5-dimethylthiazol-2-yl)-2,5-diphenyl tetrazolium bromide (herein referred as MTT) into the blue product formazan dye by mitochondrial reduction. The amount of formazan obtained at the end of the experiment, measured by means of a spectrophotometer, is directly proportional to the number of living cells. Optical density determination thus enables a quantitative measurement of the effect of the investigated compounds as compared to the control condition (untreated cells) and/or to other reference compounds. […]
(§1) After 72 hours of incubation at 37° C. with (experimental conditions) or without (control condition) the compound to be tested, the medium was replaced by 100 μl MTT dissolved in RPMI (1640 without phenol red) at a concentration of 1 mg/ml. […] The micro-wells were shaken for 5 minutes and read on a spectrophotometer at wavelengths of 570 nm (maximum formazan absorbance) and 630 nm (back-ground noise).
For each experimental condition, the mean optical density was calculated, as well as the percentage of remaining living cells in comparison with the control. […]

U-373MG = experiment: MTT overall cell growth, U-373MG cells; format: cell-based; settings: Homo sapiens, 72 h; U373-MG; 3 days of culturing; mean of six determinations; read-out: IC50 (μM) In Vitro Growth Inhibition
Protocol: (§2) Tests were performed in order to rapidly, i.e. within 5 days, measure the effect of the compound of example 2 on the overall cell growth. The test measures the number of metabolically active living cells that are able to transform the yellow product 3-(4,5-dimethylthiazol-2-yl)-2,5-diphenyl tetrazolium bromide (herein referred as MTT) into the blue product formazan dye by mitochondrial reduction. The amount of formazan obtained at the end of the experiment, measured by means of a spectrophotometer, is directly proportional to the number of living cells. Optical density determination thus enables a quantitative measurement of the effect of the investigated compounds as compared to the control condition (untreated cells) and/or to other reference compounds.
(§3) Six human cancer cell lines described in table 1 were used in the following MTT tests. These cell lines cover six histological cancer types, being prostate, glioma, pancreas, colon, lung and breast cancers. Cells were allowed to grow in 96 well micro-wells with a flat bottom with an amount of 100 μl of cell suspension per well with 1,000 to 4,000 cells/well depending on the cell type used. Each cell line was seeded in a well known MEM 10% serum culture medium. […]
as §1
(§4) For each experimental condition, the mean optical density was calculated, as well as the percentage of remaining living cells in comparison with the control.
(§5) The overall growth of human cancer cell lines was determined by means of the calorimetric MTT (3-[4,5-dimethylthiazol-2-yl]-diphenyl tetrazolium bromide; Sigma) assay, as detailed previously.

BxPC3 = experiment: MTT overall cell growth, BxPC3 cells; format: cell-based; settings: Homo sapiens, BXPC-3, 72 h; Bx-PC-3; 3 days of culturing; mean of six determinations; read-out: IC50 (μM) In Vitro Growth Inhibition
Protocol: as §2, §3, §1, §4, §5

DU-145 = experiment: MTT colorimetric assay, DU-145 cells; format: cell-based; settings: Homo sapiens, 72 h, 3 days of culturing, mean of six determinations, read-out: IC50 (μM) In Vitro Growth Inhibition
Protocol: as §5

Hs683 = experiment: MTT colorimetric assay, Hs683 cells; format: cell-based; settings: Homo sapiens, Hs 683, 72 h, 3 days of culturing, mean of six determinations, read-out: IC50 (μM) In Vitro Growth Inhibition
Protocol: as §5

HCT-15 = experiment: MTT colorimetric assay, HCT-15 cells; format: cell-based; settings: Homo sapiens, 72 h, 3 days of culturing, mean of six determinations, read-out: IC50 (μM) In Vitro Growth Inhibition
Protocol: as §5

LoVo = experiment: MTT colorimetric assay, LoVo cells; format: cell-based; settings: Homo sapiens, 72 h, 3 days of culturing, mean of six determinations, read-out: IC50 (μM) In Vitro Growth Inhibition
Protocol: as §5

MCF-7 = experiment: MTT colorimetric assay, MCF-7 cells; format: cell-based; settings: Homo sapiens, MCF7, 72 h, 3 days of culturing, mean of six determinations, read-out: IC50 (μM) In Vitro Growth Inhibition
Protocol: as §5

A549 = experiment: MTT colorimetric assay, A549 cells; format: cell-based; settings: Homo sapiens, 72 h, 3 days of culturing, mean of six determinations, read-out: IC50 (μM) In Vitro Growth Inhibition
Protocol: as §5

[1] = system: nine human cancer cell lines; experiment: MTT colorimetric assay, mean of nine cell lines; format: cell-based; settings: mean over nine human cancer cell lines, read-out: mean antiproliferative activity IC50
Protocol: as §5
UNBS3157 and UNBS5162 display weak antiproliferative activity in vitro.

P-glycoprotein = experiment: P-gp ATPase activity (P-gp Drug interaction Assay Kit); format: biochemical
Protocol: In order to test drug interaction with P-glucoprotein (herein-after referred as P-gp) we used an assay based on the study of modulation of ATPase activity from enriched P-gp membrane vesicle preparation (the following kit has been used: P-gp Drug interaction Assay Kit commercially available from SPI BIO France). P-gp ATPase activity was measured by a spectrophotometric method based on monitoring of ADP formation in the vesicle suspension medium. The basal ATPase activity was defined as the activity determined in the absence of any added drug. […]

[2] = system: human PC-3 orthotopic xenografts
Protocol: (§6) Orthotopic xenografts were obtained by injecting 2.5×10^6 human PC-3 or DU-145 cells into the prostate of 6-week-old male nu/nu mice (n=9 animals per treatment group). All grafts were performed under anesthesia [saline/Rompun (Bayer, Leverkusen, Germany)/Imalgene (Merial, Lyons, France); 5:1:1 by volume]. The end point in these orthotopic experiments was the survival period of the tumor-bearing mice after the administration of UNBS3157, UNBS5162, or reference anticancer agents (taxol, mitoxantrone, and amonafide). However, for ethical reasons, animals were killed when 20% of body weight had been lost compared to that determined at the time of tumor grafting. All animals were weighed three times a week. […] In the case of UNBS5162 experiments in the PC-3 model, after the sacrifice of animals, tumors were removed from both drug-treated [10 mg/kg, intravenous (i.v.)] and vehicle-treated mice, fixed in buffered formalin, embedded in paraffin, and 5-μm-thick sections taken. These histologic slides were then stained with hematoxylin and eosin for blood vessel counts.

[3] = system: human DU-145 orthotopic xenografts; experiment: Orthotopic DU-145 prostate cancer xenograft, survival; format: in vivo, nu/nu mice; settings: DU-145 orthotopic model
Protocol: as §6

[4] = In vitro stability of UNBS3157 in saline/DMSO; format: physicochemical; settings: physiological saline/DMSO (95:5 v/v), 37° C.
[5] = system: platelets, red and white blood cells; experiment: Compound-induced hematotoxicity and tolerance in mice; format: in vivo; settings: five times a week for three weeks
Protocol: We have determined the compound-induced potential hematotoxicity of the compound produced according to example 2 or example 7 on platelets, red and white blood cells in comparison of the effect of amonafide on platelets, red and white blood cells. The effect of amonafide was evaluated at 10 mg/kg and 20 mg/kg, by the intra-peritoneal administration to mice. The administration schedule was five times a week for three consecutive weeks. The effect of the compound produced according to example 2 or example 7 was evaluated at 20 mg/kg, by the intra-venous administration to mice. The administration schedule was three times a week (on Mondays, Wednesdays and Fridays) for five consecutive weeks. The animals were sacrificed 3 days after the last injection. There were 10 mice per group. FIG. 1 illustrates results of this assay for compound-induced hematotoxicity on platelets.

[6] = system: human A549 NSCLC orthotopic; settings: Taxol i.v. 20 mg/kg (1i × 3w)
Protocol: The purpose of the present study was to evaluate the in vivo efficacy of UNBS5162 on human A549 NSCLC orthotopic nude mice model. The endpoint in this experiment was the survival period of the tumor-bearing mice following treatment, as indicated.
The experiment comprised 6 groups of II mice, one group with mice receiving the vehicle only (Ct group) and 5 groups receiving the treatments as indicated in the Table 13. UNBS5162 was dosed i.v. at 10 mg/kg (in lactic acid vehicle). Taxol (Paclitaxel 6 mg/mL, Bristol-Myers Squibb) was dosed i.v. at 20 mg/kg.

PC-3 = experiment: Senescence-associated β-galactosidase staining, PC-3; format: cell-based, human; settings: 20 nM Adriamycin, 72 hours
Protocol: After the indicated treatments, cells were washed in PBS, fixed for 3 to 5 minutes (at room temperature) in 2% formaldehyde/0.2% glutaraldehyde, washed and incubated at 37° C. (in the absence of CO2) with fresh senescence-associated β-Gal (SA-β-Gal) staining solution: 1 mg/ml of 5-bromo-4-chloro-3-indolyl […] (X-Gal; Sigma). Staining was evident within 2 to 4 hours and maximal after 12 to 16 hours. To detect lysosomal β-Gal, the citric acid/sodium phosphate used was pH 4.0. As described in the study of Dimri et al. [Proc Natl Acad Sci USA. 1995; 92:9363-9367.], after fixing and staining with X-Gal, the number of cells positive for the SA-β-Gal activity (intense blue staining) was then counted independently by two different individuals (on 400 cells/plate). Representative photographs (original magnifications, ×20) of stained cells from different experimental treatments were taken. As a positive control for SA-β-Gal expression, Adriamycin-treated cells were used.
Human PC-3 and DU-145 prostate cancer cells cultured in 0 or 10 μM UNBS5162 or 20 nM Adriamycin for 72 hours were evaluated by SA-β-Gal staining. The data clearly indicate that 10 μM [but not 1 μM or 5×1 μM] […] TMZ, as an inducer of autophagy but not of senescence, was used as a negative control.

## CN(C)CCN1C(=O)c2cccc3cc(NC(=O)NC(=O)C(Cl)(Cl)Cl)cc(c23)C1=O [UNBS3157, 2,2,2-trichloro-N-[({2-[2-(dimethylamino)ethyl]-1,3-dioxo-2,3-dihydro-1H-benzo[de]isoquinolin-5-yl}amino)carbonyl]acetamide]
PC3
  IC50: 15.1 µM
U-373MG
  IC50: 3.9 µM
BxPC3
  IC50: 17.2 µM
DU-145
  IC50: 23 µM
Hs683
  IC50: 9.9 µM
HCT-15
  IC50: 29.3 µM
LoVo
  IC50: 26.4 µM
MCF-7
  IC50: 44.3 µM
A549
  IC50: 8.7 µM
[1]
  IC50: 19.8 µM
P-glycoprotein; 100 μM (data not shown)
  modulation of Pgp ATPase activity: do not affect Pgp ATPase activity
[2]; PC-3 orthotopic model, 40 mg/kg p.o.
  % T/C: 100%
[2]; PC-3 orthotopic model, 160 mg/kg orally
  % T/C: 151%
[3]; 20 mg/kg i.v.
  % T/C: 143%
[3]; 40 mg/kg orally
  % T/C: 164%
[4]; 22-hour incubation
  production of amonafide on hydrolysis: without production of amonafide
[4]; in 270 minutes, 10^−4 M
  hydrolyzed to UNBS5162: 90%

## CN(C)CCN1C(=O)c2cccc3cc(N)cc(c23)C1=O [amonafide]
[5]; 10 mg/kg intra-peritoneal
  tolerance of chronic administrations: tolerated 15 chronic administrations
[5]; 20 mg/kg intra-peritoneal
  tolerance of chronic administrations: all animals died before receiving the complete set of 15 administrations
P-glycoprotein; 50 μM
  modulation of basal P-gp ATPase activity: significantly alter the ATPase activity
[2]; PC-3 orthotopic model, 40 mg/kg p.o., 40 mg/kg
  % T/C: 103% and 107%
[3]; 20 mg/kg i.v. and lower doses
  activity (survival): inactive
[3]; 40 mg/kg orally
  % T/C: 138%

## CC(=O)O[C@H]1C(=O)[C@@]2(C)[C@H]([C@H](OC(=O)c3ccccc3)[C@]3(O)C[C@H](OC(=O)[C@H](O)[C@@H](NC(=O)c4ccccc4)c4ccccc4)C(C)=C1C3(C)C)[C@]1(OC(C)=O)CO[C@@H]1C[C@@H]2O [taxol, reference compound]
[3]; 20 mg/kg i.v.
  % T/C: 146%
[6]
  T/C (%): 128%

## COc1cccc2c1C(=O)c1c(O)c3c(c(O)c1C2=O)C[C@@](O)(C(=O)CO)C[C@@H]3O[C@H]1C[C@H](N)[C@H](O)[C@H](C)O1 [Adriamycin, doxorubicin, reference compound]
PC-3
  SA-β-Gal expression: Limited SA-β-Gal expression

## O=C1c2c(O)ccc(O)c2C(=O)c2c(NCCNCCO)ccc(NCCNCCO)c21 [mitoxantrone, reference compound]
[2]; PC-3 orthotopic model, mitoxantrone i.v.
  therapeutic benefit (survival): failed to contribute any therapeutic benefit
[2]; mouse, in vivo, iv, 2.5 mg/kg
  toxicity: highly toxic

Reference: patent US20090186915A1, “Compositions and methods for treatment of glioblastoma, gliosarcoma, NSCLC, and head and neck cancer” (Unibioscreen S. A., priority 2006, published 2009)
